Consider four compounds from patent US20240238327A1 (priority 2021, published 2024).

The cell viability is a read-out of living cells in per cent, often relative to untreated cells. Read a high cell viability as better survival.

Series [1] has as its system Raw 264.7 cells. As to the kind of experiment: plasma membrane cholesterol extraction from fixed cells. It counts as cell-based. The note with it: for plasma membrane cholesterol extraction: monomers, 20 mg/mL in PBS, 37° C., 1 hour, fixed cells. Here is the method: Raw 264.7 cells were maintained in a Dulbecco's modified Eagle's medium (DMEM) containing 10% fetal bovine serum (FBS) and 1% penicillin/streptomycin. In order to suppress endocytosis of cyclodextrin and induce only plasma membrane cholesterol extraction, 1×10^5 cells were fixed at room temperature for 20 minutes using formaldehyde, and then cyclodextrin was dissolved in PBS in a concentration of 20 mg/mL and treated to the cells at 37° C. for 1 hour. The treated PBS was collected, centrifuged at a rate of 14,000 g for 30 minutes to remove cell debris and microvesicles, and then the cholesterol concentration in the supernatant was quantified using a Cholesterol Quantification Kit (Sigma Aldrich). The plasma membrane cholesterol extraction of gamma-cyclodextrins and polymers thereof was compared with alpha and beta-cyclodextrins and polymers thereof. […] The plasma membrane cholesterol extraction induced by gamma-cyclodextrins and polymers thereof was compared with alpha- and beta-cyclodextrins and polymers thereof, and the results are shown in FIG. 5.

Series [2] has as its system Raw 264.7 cells. As to the kind of experiment: cytotoxicity (CCK-8 cell viability). It counts as cell-based. Particulars: monomers, 20 mg/mL.
Description: Raw 264.7 cells were maintained in a DMEM containing 10% FBS and 1% penicillin/streptomycin. 5×10^4 cells were dispensed in each well of a 96-well plate, and after 24 hours, the cells were treated with cyclodextrin at a concentration of 20 mg/mL. After culturing the cells at 37° C. in 5% CO2, a CCK-8 agent was added, 10 μL at a time.
Series [3] is described as follows: cholesterol crystal dissolution. The note with it: monomers; 20 mg/mL, 37° C., 2 hours; NBD-cholesterol fluorescence. It counts as physicochemical. Here is the method:
First, in order to form cholesterol crystals, a solution including 2 mg/ml of cholesterol and 0.2 mg/ml of NBD-cholesterol in ethanol was prepared, and then distilled water (30% v/v) was added to the solution to induce crystallization. The solution was completely dried under vacuum, resuspended in PBS, and sonicated for 30 seconds. 20 μL of 5 mM cholesterol was mixed with 300 μL of 20 mg/mL cyclodextrin and reacted at 37° C. for 2 hours. After centrifuging the mixture at 14,000 g for 30 minutes to remove undissolved cholesterol crystals, the supernatant was collected and the fluorescence of dissolved NBD-cholesterol was measured at 480 nm/520 nm, and the cholesterol crystal dissolution levels depending on the molecular weights of hydroxypropyl-alpha-, -beta-, -gamma-cyclodextrin monomers and polymers were confirmed.

The subject of series [4] is whole blood from wild-type C57/BL6 mice. Put plainly: hemolytic activity. It counts as cell-based. The note with it: monomers; 50 mg/ml in PBS, 37° C., 1 hour.
Description: For hemolytic activity analysis, 30 μL of whole blood from wild-type C57/BL6 mice was mixed with 300 μL of a PBS solution containing 50 mg/ml of cyclodextrin and reacted at 37° C. for 1 hour. After centrifuging the mixture at 3,000 g for 5 minutes, the absorbance at 540 nm was measured using the supernatant.
Series [5] concerns Raw 264.7 cells. As to the kind of experiment: intracellular cholesterol excretion in macrophages that had taken up fluorescent cholesterol. The note with it: 5 mg/mL, 48 hours; PBS control set to 100%. It counts as cell-based. Here is the method:
Raw 264.7 cells were dispensed at 5×10^4 cells per well of a 96-well plate, and after 24 hours, the cells were treated with cholesterol crystals at a concentration of 50 μM. […] The cells were cultured at 37° C. in 5% CO2 for 48 hours, and intracellular cholesterol fluorescence was analyzed using a fluorescence microscope. In addition, to investigate the effect of cyclodextrin on intracellular cholesterol metabolism, the amount of ATP-binding cassette transporter (ABCA1) involved in cholesterol excretion was quantified using a cell flow rate analyzer, and cholesteryl ester, which is a storage form of cholesterol, was quantified.

Series [6] relates to outer hair cells in the cochlea. Particulars: 5 g/kg brain weight intraventricular; one week after injection. Here is the method:
(§1) To assess systemic toxicity, cyclodextrin dissolved in PBS was subcutaneously injected in an amount of 10 g/kg body weight to wild-type C57/BL6 mice. […] The body weight and behavioral characteristics of the mice were observed every day for a week. The behavioral characteristics of the mice were measured according to the criteria presented in Endpoints for Mouse Abdominal Tumor Models: Refinement of Current Criteria. In order to confirm toxicity to major organs, the mice were sacrificed 7 days later, and H&E staining was performed. In order to assess ototoxicity, the mice were sacrificed 7 days later, and the outer hair cells in the cochlea were quantified through microscopic observation. […] The brain weight of the mice was calculated to be about 0.4 g according to the age, and as a result, 2 mg of cyclodextrin was dissolved in 10 μL of PBS and injected. After 7 days, the outer hair cells in the cochlea were quantified through microscopic observation.
(§2) Also, the histological analysis of the major organs of the mice after one week is shown in FIG. 24, and ototoxicity of the C57BL/6 mice was evaluated one week after subcutaneously injecting 10 g/kg of cyclodextrin and intraventricularly injecting 5 g/kg brain weight of cyclodextrin. […]

Series [7] is described as follows: systemic toxicity (body weight, behavioral score, organ histology). The note with it: 10 g/kg subcutaneous; one day after administration. Here is the method:
as §1, §2

For hydroxypropyl-alpha-cyclodextrin, the “plasma membrane cholesterol extraction” value in the series with Raw 264.7 cells [1] is recorded as 42.8%. In addition, the cell viability in the series with Raw 264.7 cells [2] came out at 14.2%. In series [3], this compound gave a cholesterol crystal dissolution of 21.9%.
In the case of `CC(O)COC[C@H]1O[C@@H]2O[C@H]3[C@H](O)[C@@H](O)[C@@H](O[C@H]4[C@H](O)[C@@H](O)[C@@H](O[C@H]5[C@H](O)[C@@H](O)[C@@H](O[C@H]6[C@H](O)[C@@H](O)[C@@H](O[C@H]7[C@H](O)[C@@H](O)[C@@H](O[C@H]8[C@H](O)[C@@H](O)[C@@H](O[C@H]1[C@H](O)[C@H]2O)O[C@@H]8COCC(C)O)O[C@@H]7COCC(C)O)O[C@@H]6COCC(C)O)O[C@@H]5COCC(C)O)O[C@@H]4COCC(C)O)O[C@@H]3COCC(C)O` (stereo partly drawn) [hydroxypropyl-beta-cyclodextrin], the “plasma membrane cholesterol extraction” value with Raw 264.7 cells [1] is reported as 45%. Also, the cell viability in the series with Raw 264.7 cells [2] was determined as 9.6%. Further, the hemolytic activity in series [4] is reported as 97.1%. Further, the cholesterol crystal dissolution in series [3] is 32.3%. In the series on Raw 264.7 cells [5], the “amount of intracellular cholesterol” value came out at 80.5%. For the same compound, the “outer hair cell survival” value in series [6] is on record as 27.5%.
Consider cyclodextrin, for which the “lowest behavioral score, average” value in series [7] is listed as 6 points.
In the case of hydroxypropyl-gamma-cyclodextrin, the “level of plasma membrane cholesterol extraction (in words)” value in the series on Raw 264.7 cells [1] (20 mg/mL, compared with alpha- and beta-cyclodextrin monomers and polymers, or with the monomers) is “significantly low levels of cholesterol extraction”. The “plasma membrane cholesterol extraction” value in the series on Raw 264.7 cells [1] is recorded as 5%. Besides, in the series with Raw 264.7 cells [2], the cell viability is recorded as 93.9%. In series [3], the cholesterol crystal dissolution was 12.1%. In the series on Raw 264.7 cells [5], the “amount of intracellular cholesterol” value is on record as 75%. Also, the “outer hair cell survival” value in series [6] amounted to 69.7%.
